Test results published in patent US8598145B2, “Mitochondrially delivered anti-cancer compounds” (priority 2008, dated 2013).

Columns and labels:
EAhy926 cells = test: Angiogenesis in vitro: wound-healing and tube-forming (FIG. 7); format: cell-based, human
Experimental: Wound-healing (A-F) and tube-forming activity (G, H) were assessed using the EC EAhy926 cells. For wound-healing activity, the cells were seeded in 35-mm Petri dishes and allowed to reach 100% confluency. The ‘injury’ was then performed, resulting in a denuded gap of 0.4-0.5 mm. Wound-healing activity in control cells and cells supplemented with 1, 5 or 10 μM MitoVES was assessed on the basis of proliferation and migration of cells into the denuded zone using a light microscope equipped with a grid and a digital camera (A). […] In panel C, representative images of injured control cells and cells treated with 10 μM MitoVES at different times are presented. […] EAhy926 cells were seeded at ˜10^5 per well in Matrigel-coated 24-well plates and allowed for 24 h to form tubes at the absence or presence of MitoVES. Complete capillaries connecting points of individual polygons (see General Materials and Methods) were counted per the field of 0.16 mm^2 and took as a measure of the tube-forming activity (F). […] At 20 h of treatment, the cells were retrieved from the Matrigel and assessed for apoptosis using the Annexin V binding method (H). Parental EAhy926 cells and their ρ^0 counterparts were seeded in Petri dishes at confluency, ‘injured’ as described above, and the wound-healing activity assessed in the absence or presence of 10 μM MitoVES (MVES) (I; see symbols above panel L). The healing rate was estimated from the slopes in panel I and plotted in […] (J). At 20 h, the cells were assessed for the level of apoptosis (K). Panel L documents tube-forming activity in Matrigel of the ρ^0 EAhy 926 cells in the absence or presence of 5 μM MitoVES. […]
To assess the effect of α-TOS on the wound-healing activity of the EAhy926 cells, the cells were seeded in […] Petri dishes and allowed to reach complete confluence. […] Regrowth of cells (wound healing) in the presence of α-TOS or α-TEA was assessed by following the kinetics of narrowing the denuded gap in the microscope equipped with a grid in the eyepiece and healing expressed as the ‘rate of filling the gap’ as the rate of healing in μm/h. […]

T lymphoma cells = details: medium pH ~6.2 compared to pH 7.2; cited from earlier work

| SMILES | fold greater potency as antiangiogenic drug than α-TOS (EAhy926 cells; relative to α-TOS) | concentration needed for comparable levels of effects on endothelial cells (EAhy926 cells; same endothelial cell types) | angiogenesis in vitro (EAhy926 cells; wound-healing, tube-forming and apoptosis assays) | greater apoptogenic efficacy at acidic pH (T lymphoma cells) |
| --- | --- | --- | --- | --- |
| Cc1c(C)c2c(c(C)c1OC(=O)CCC(=O)[O-])CCC(C)(CCCCCCCCCCC[P+](c1ccccc1)(c1ccccc1)c1ccccc1)O2 (stereo not shown) [MitoVE11S] | 5 fold | 5 to 10 µM | inhibits angiogenesis in vitro | – |
| Cc1c(C)c2c(c(C)c1OC(=O)CCC(=O)O)CC[C@@](C)(CCC[C@H](C)CCC[C@H](C)CCCC(C)C)O2 [α-TOS, α-tocopheryl succinate, reference compound] | – | – | – | ~3 times |
